pEC50: −log10 of the molar value. Where a name gives a salt, the structure may show the parent alone.

For this assay, the target named is T1, human mGluR4 (hmGluR4) (Homo sapiens, UniProt Q14833).
T1 construct: expressed in transfected cells; host or cells: HEK-293 cells, transient co-transfection by electroporation
Description: Calcium assay EC50 determination, positive allosteric modulator activity on hmGluR4 transiently over-expressed in HEK-293 cells. It counts as cell-based. Conditions: PAM mode with EC20 glutamate; hmGluR4 in HEK-293 cells; intracellular calcium (Fluo4AM); read-out: mGluR4 positive allosteric modulator activity, half maximal effective concentration (EC50). The protocol:
Compounds are tested successively for their agonist and positive allosteric modulator activities on human mGluR4 (hmGluR4) transiently over-expressed in HEK-293 cells. Compounds exert agonist activity if, by themselves in absence of glutamate, they are able to activate hmGluR4; and they exert positive allosteric modulator activity if they increase the action of glutamate.
HEK-293 cells are maintained in Modified Eagle's Medium supplemented with 10% Foetal Calf Serum, 1% Penicillin/Streptomycin and 1% non-essential amino acids at 37° C./5% CO2.
Cells are co-transfected by electroporation with four DNA plasmids encoding hmGluR4, a chimeric G protein allowing redirection of the activation signal to intracellular calcium pathway, and glutamate transporters to decrease extracellular glutamate concentration so as to limit receptor desensitization. After transfection, cells are cultured for 24 h at 37° C./5% CO2.
Calcium Assay EC50 determination
Receptor activity is detected by changes in intracellular calcium measured using the fluorescent Ca^2+ sensitive dye, Fluo4AM (Molecular Probes).
On the day of the assay, culture medium is aspirated and replaced during 3 hours by medium without serum supplemented with 1% Glutamax, 1% Penicillin/Streptomycin and 1% non-essential amino acids. Then, cells are washed with freshly prepared buffer B (HBSS 1× (PAA), Hepes 20 mM, MgSO4-7H2O 1 mM, Na2CO3 3.3 mM, CaCl2-2H2O 1.3 mM, 0.1% BSA, Probenecid 2.5 mM) and loaded at 37° C. in 5% CO2 for 1.5 hours with buffer B containing 1 μM Fluo4AM, 0.1 mg/mL Pluronic Acid, 7 μg/mL Glutamate Pyruvate Transaminase and 2 mM sodium pyruvate. Afterwards cells are washed twice with buffer B. Then cells are detached using StemPro Accutase (Fisher Scientific), resuspended in buffer B and seeded in 384 well plate at a density of 30,000 cells per well. Addition of compounds and intracellular Ca^2+ measurements (excitation 485 nm, emission 525 nm) are performed by the fluorescence microplate reader FLIP^Tetra (Molecular Devices).
Agonist and positive allosteric modulator activities of compounds are consecutively evaluated on the same cell plate. Agonist activity is first tested during 10 minutes with the addition of compound alone on the cells. Then, cells are stimulated by an EC20 glutamate concentration and fluorescence is recorded for additional 3 minutes. EC20 glutamate concentration is the concentration giving 20% of the maximal glutamate response. Agonist or positive allosteric modulator activity(ies) are evaluated in comparison to basal signals evoked by buffer B or EC20 glutamate alone, respectively.
A general note: Calcium flux is commonly read through the fluorescence of an indicator in the cells.

T1 sequence (Q14833 33-912): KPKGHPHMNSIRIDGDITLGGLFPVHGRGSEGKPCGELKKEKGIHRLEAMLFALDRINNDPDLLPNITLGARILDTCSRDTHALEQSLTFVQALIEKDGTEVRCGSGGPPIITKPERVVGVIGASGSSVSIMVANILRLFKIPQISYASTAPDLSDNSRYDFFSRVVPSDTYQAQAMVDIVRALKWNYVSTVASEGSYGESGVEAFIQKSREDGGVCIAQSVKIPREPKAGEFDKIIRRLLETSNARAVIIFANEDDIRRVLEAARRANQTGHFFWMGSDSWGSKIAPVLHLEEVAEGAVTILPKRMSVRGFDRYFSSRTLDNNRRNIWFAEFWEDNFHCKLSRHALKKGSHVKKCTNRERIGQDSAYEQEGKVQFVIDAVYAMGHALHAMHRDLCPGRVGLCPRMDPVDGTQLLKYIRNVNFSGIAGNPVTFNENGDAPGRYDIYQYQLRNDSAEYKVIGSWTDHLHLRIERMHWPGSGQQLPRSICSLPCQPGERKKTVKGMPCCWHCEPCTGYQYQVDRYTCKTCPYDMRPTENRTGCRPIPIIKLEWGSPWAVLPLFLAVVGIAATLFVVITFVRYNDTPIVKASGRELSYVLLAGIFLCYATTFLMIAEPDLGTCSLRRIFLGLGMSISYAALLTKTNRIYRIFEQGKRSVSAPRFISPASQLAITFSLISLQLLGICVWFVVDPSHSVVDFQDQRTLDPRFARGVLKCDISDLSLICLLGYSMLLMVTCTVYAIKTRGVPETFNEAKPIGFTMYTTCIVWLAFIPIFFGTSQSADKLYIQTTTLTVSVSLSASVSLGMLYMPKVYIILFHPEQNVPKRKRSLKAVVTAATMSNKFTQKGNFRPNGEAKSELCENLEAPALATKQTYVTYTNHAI

For the molecule `Cc1cc(CCCOc2ccc3nc(-c4cc5ccsc5cn4)[nH]c(=O)c3c2)ccn1` [Compound 63, 6-[3-(2-Methyl-pyridin-4-yl)-propoxy]-2-thieno[2,3-c]pyridin-5-yl-3H-quinazolin-4-one hydrochloride], the pEC50 is 6.00 to 7.00.

As for `Cc1cc(OCCCc2ccncc2)cc2c(=O)[nH]c(-c3cc4ccsc4cn3)nc12` [Compound 65, 8-Methyl-6-(3-pyridin-4-yl-propoxy)-2-thieno[2,3-c]pyridin-5-yl-3H-quinazolin-4-one hydrochloride], the pEC50 is at least 7.00.

Take `O=c1[nH]c(-c2cc3ccsc3cn2)nc2ccc(OCCCc3ccncc3)nc12` [Compound 66, 6-(3-Pyridin-4-yl-propoxy)-2-thieno[2,3-c]pyridin-5-yl-3H-pyrido[3,2-d]pyrimidin-4-one hydrochloride]: the pEC50 is 6.00 to 7.00.

On to `O=c1[nH]c(-c2cc(C(F)(F)F)ccn2)nc2ncc(OCCCc3ccncc3)cc12` [Compound 68, 6-(3-Pyridin-4-yl-propoxy)-2-(4-trifluoromethyl-pyridin-2-yl)-3H-pyrido[2,3-d]pyrimidin-4-one hydrochloride], for which the pEC50 was below 5.00.

Consider `O=c1[nH]c(-c2cc(C(F)(F)F)ccn2)nc2cnc(OCCCc3ccncc3)cc12` [Compound 69, 6-(3-Pyridin-4-yl-propoxy)-2-(4-trifluoromethyl-pyridin-2-yl)-3H-pyrido[3,4-d]pyrimidin-4-one hydrochloride], for which the pEC50 was 6.00 to 7.00.

As for `O=c1[nH]c(-c2cc3ccsc3cn2)nc2cc(C(F)(F)F)c(OCCCc3ccncc3)cc12` [Compound 70, 6-(3-Pyridin-4-yl-propoxy)-2-thieno[2,3-c]pyridin-5-yl-7-trifluoromethyl-3H-quinazolin-4-one hydrochloride], the pEC50 was 5.00 to 6.00.

For `O=c1[nH]c(-c2cc3ccsc3cn2)nc2ccc(OCCCc3ccncc3)c(Cl)c12` [Compound 71, 5-Chloro-6-(3-pyridin-4-yl-propoxy)-2-thieno[2,3-c]pyridin-5-yl-3H-quinazolin-4-one hydrochloride], the pEC50 was below 5.00.

As to `O=c1[nH]c(-c2cc3ccsc3cn2)nc2c(Cl)cc(OCCCc3ccncc3)cc12` [Compound 72, 8-Chloro-6-(3-pyridin-4-yl-propoxy)-2-thieno[2,3-c]pyridin-5-yl-3H-quinazolin-4-one hydrochloride], the pEC50 was 6.00 to 7.00.

With `O=c1[nH]c(-c2cc3ccsc3cn2)nc2c(C3CC3)cc(OCCCc3ccncc3)cc12` [Compound 73, 8-Cyclopropyl-6-(3-pyridin-4-yl-propoxy)-2-thieno[2,3-c]pyridin-5-yl-3H-quinazolin-4-one hydrochloride], the pEC50 is 6.00 to 7.00.

For the molecule `CCc1cc(OCCCc2ccncc2)cc2c(=O)[nH]c(-c3cc4ccsc4cn3)nc12` [Compound 74, 8-Ethyl-6-(3-pyridin-4-yl-propoxy)-2-thieno[2,3-c]pyridin-5-yl-3H-quinazolin-4-one hydrochloride], the pEC50 was 6.00 to 7.00.

As for `O=c1[nH]c(-c2cc3ccsc3cn2)nc2c(F)cc(OCCCc3ccncc3)cc12` [Compound 75, 8-Fluoro-6-(3-pyridin-4-yl-propoxy)-2-thieno[2,3-c]pyridin-5-yl-3H-quinazolin-4-one], the pEC50 was 6.00 to 7.00.

Consider `Cc1cc(OCC2CCOCC2)cc2c(=O)[nH]c(-c3cc4ccsc4cn3)nc12` [Compound 76, 8-Methyl-6-(tetrahydro-pyran-4-ylmethoxy)-2-thieno[2,3-c]pyridin-5-yl-3H-quinazolin-4-one], for which the pEC50 was at least 7.00.

In the case of `Cc1cc(OCCC2COC2)cc2c(=O)[nH]c(-c3cc4ccsc4cn3)nc12` [Compound 77, 8-Methyl-6-(2-oxetan-3-yl-ethoxy)-2-thieno[2,3-c]pyridin-5-yl-3H-quinazolin-4-one], the pEC50 was 6.00 to 7.00.

For the molecule `Cc1cc(OCCC2CCOC2)cc2c(=O)[nH]c(-c3cc4ccsc4cn3)nc12` (centres unmarked) [Compound 78, 8-Methyl-6-[2-(tetrahydro-furan-3-yl)-ethoxy]-2-thieno[2,3-c]pyridin-5-yl-3H-quinazolin-4-one], the pEC50 is at least 7.00.

With `Cc1cc(OCCC2CCOCC2)cc2c(=O)[nH]c(-c3cc4ccsc4cn3)nc12` [Compound 79, 8-Methyl-6-[2-(tetrahydro-pyran-4-yl)-ethoxy]-2-thieno[2,3-c]pyridin-5-yl-3H-quinazolin-4-one], the pEC50 was 6.00 to 7.00.

For `Cc1cc(OCC2CCOC2)cc2c(=O)[nH]c(-c3cc4ccsc4cn3)nc12` (centres unmarked) [Compound 80, 8-Methyl-6-(tetrahydro-furan-3-ylmethoxy)-2-thieno[2,3-c]pyridin-5-yl-3H-quinazolin-4-one], the pEC50 is at least 7.00.

Take `Cc1cc(OC[C@@H]2CCOC2)cc2c(=O)[nH]c(-c3cc4ccsc4cn3)nc12` [Compound 80-R, R-8-Methyl-6-(tetrahydro-furan-3-ylmethoxy)-2-thieno[2,3-c]pyridin-5-yl-3H-quinazolin-4-one]: the pEC50 is at least 7.00.

`Cc1cc(OC[C@H]2CCOC2)cc2c(=O)[nH]c(-c3cc4ccsc4cn3)nc12` [Compound 80-S, S-8-Methyl-6-(tetrahydro-furan-3-ylmethoxy)-2-thieno[2,3-c]pyridin-5-yl-3H-quinazolin-4-one]: the pEC50 was at least 7.00.

Take `CCC(=O)N1CC[C@H](Oc2cc(C)c3nc(-c4cc5ccsc5cn4)[nH]c(=O)c3c2)C1` [Compound 82-S, S-8-Methyl-6-(1-propionyl-pyrrolidin-3-yloxy)-2-thieno[2,3-c]pyridin-5-yl-3H-quinazolin-4-one]: the pEC50 is at least 7.00.

With `Cc1cc(O[C@@H]2CCN(C3COC3)C2)cc2c(=O)[nH]c(-c3cc4ccsc4cn3)nc12` [Compound 83-R, R-8-Methyl-6-(1-oxetan-3-yl-pyrrolidin-3-yloxy)-2-thieno[2,3-c]pyridin-5-yl-3H-quinazolin-4-one], the pEC50 was 6.00 to 7.00.

Turning to `Cc1cc(O[C@H]2CCN(C3COC3)C2)cc2c(=O)[nH]c(-c3cc4ccsc4cn3)nc12` [Compound 83-S, S-8-Methyl-6-(1-oxetan-3-yl-pyrrolidin-3-yloxy)-2-thieno[2,3-c]pyridin-5-yl-3H-quinazolin-4-one], the pEC50 was at least 7.00.

As for `Cc1cc(OCCN2CCC3(CC2)COC3)cc2c(=O)[nH]c(-c3cc4ccsc4cn3)nc12` [Compound 84, 8-Methyl-6-[2-(2-oxa-7-aza-spiro[3.5]non-7-yl)-ethoxy]-2-thieno[2,3-c]pyridin-5-yl-3H-quinazolin-4-one], the pEC50 is 6.00 to 7.00.

Take `Cc1cc(OCC2CCN(C3COC3)CC2)cc2c(=O)[nH]c(-c3cc4ccsc4cn3)nc12` [Compound 86, 8-Methyl-6-(1-oxetan-3-yl-piperidin-4-ylmethoxy)-2-thieno[2,3-c]pyridin-5-yl-3H-quinazolin-4-one]: the pEC50 was at least 7.00.

As to `CCC(=O)N1CCC(COc2cc(C)c3nc(-c4cc5ccsc5cn4)[nH]c(=O)c3c2)CC1` [Compound 87, 8-Methyl-6-(1-propionyl-piperidin-4-ylmethoxy)-2-thieno[2,3-c]pyridin-5-yl-3H-quinazolin-4-one], the pEC50 was 6.00 to 7.00.

`Cc1cc(OCC2CCN(S(C)(=O)=O)CC2)cc2c(=O)[nH]c(-c3cc4ccsc4cn3)nc12` [Compound 88, 6-(1-Methanesulfonyl-piperidin-4-ylmethoxy)-8-methyl-2-thieno[2,3-c]pyridin-5-yl-3H-quinazolin-4-one]: the pEC50 was at least 7.00.

For the molecule `Cc1cc(N2CCC3(CC2)COC3)cc2c(=O)[nH]c(-c3cc4ccsc4cn3)nc12` [Compound 89, 8-Methyl-6-(2-oxa-7-aza-spiro[3.5]non-7-yl)-2-thieno[2,3-c]pyridin-5-yl-3H-quinazolin-4-one], the pEC50 is at least 7.00.

With `Cc1cc(N2CC3(CCOC3)C2)cc2c(=O)[nH]c(-c3cc4ccsc4cn3)nc12` [Compound 90, 8-Methyl-6-(6-oxa-2-aza-spiro[3.4]oct-2-yl)-2-thieno[2,3-c]pyridin-5-yl-3H-quinazolin-4-one], the pEC50 was at least 7.00.

`Cc1cc(N2CCC3(CCOCC3)CC2)cc2c(=O)[nH]c(-c3cc4ccsc4cn3)nc12` [Compound 91, 8-Methyl-6-(3-oxa-9-aza-spiro[5.5]undec-9-yl)-2-thieno[2,3-c]pyridin-5-yl-3H-quinazolin-4-one]: the pEC50 was at least 7.00.

In the case of `Cc1cc(N2CCC3(CCCOC3)C2)cc2c(=O)[nH]c(-c3cc4ccsc4cn3)nc12` (centres unmarked) [Compound 92, 8-Methyl-6-(7-oxa-2-aza-spiro[4.5]dec-2-yl)-2-thieno[2,3-c]pyridin-5-yl-3H-quinazolin-4-one], the pEC50 is at least 7.00.

The values above are taken from US20220089609A1, “SUBSTITUTED QUINAZOLINONE DERIVATIVES AND THEIR USE AS POSITIVE ALLOSTERIC MODULATORS OF MGLUR4” (DOMAIN THERAPEUTICS, priority 2018, published 2022).
